Data on 85 compounds can be found in PubChem BioAssay AID2305 (GlaxoSmithKline (GSK), 2010).

Values joined by “and” are separate entries in the source; they are usually repeats but may differ in a detail not shown here. Equal values may be shown once.

For this experiment, the system named is P. falciparum 3D7 growth, pLDH absorbance. The experiment in a line: P. falciparum 3D7 growth inhibition, dose response, strain 3D7 (AID 2305).

`Cc1cc(N[C@@H](Cc2ccccc2)C(=O)Nc2ccccc2)nc(NCCc2cccs2)n1` gave a 50% inhibitory concentration (IC50) of 800 nM.

Take `Cc1ccc(F)c(OCC2CCCN(c3ccc(C(=O)NC4CC4)cn3)C2)c1` (stereo not given): the IC50 worked out at 770 nM.

In the case of `O=C(/C=C/c1ccc(Cl)c(Cl)c1)NCC1CCC(CN2CCC(c3c[nH]c4ccccc34)CC2)CC1` (stereo not given), the IC50 worked out at 360 nM.

Regarding `CCCCC(NCC)c1ccc(OCCOc2ccc(C(CCCC)NCC)cc2)cc1` (stereo not given), the IC50 was found to be 930 nM.

Regarding `O=C(NC1CCN(Cc2ccccc2)CC1)c1cc(-c2ccncc2)c(-c2ccc(Cl)c(O)c2)o1`, the concentration for half-maximal inhibition (IC50) stood at 410 nM.

`CCCN(c1ccc(C(F)(F)F)cc1[N+](=O)[O-])S(=O)(=O)C(c1ccccc1)c1ccc(C(F)(F)F)cc1[N+](=O)[O-]` (stereo not given) gave a concentration for half-maximal inhibition (IC50) of 1220 nM.

The compound `CC1CN(Cc2ccc(-c3ccc(-c4nc5ccc(F)cc5[nH]4)cc3)cc2)CC(C)O1` (stereo not given) showed a half-maximal inhibitory concentration (IC50) of 560 nM.

`CCCCNC[C@@H](O)[C@H](Cc1ccccc1)NC(=O)c1cc(NCC)cc(N2CCCCS2(=O)=O)c1` showed a half-maximal inhibitory concentration (IC50) of 400 nM.

Compound `CN(Cc1cnc2nc(N)nc(N)c2n1)c1ccc(C(=O)N[C@H](CCC(=O)OC(C)(C)C)C(=O)N[C@@H](CCC(=O)OC(C)(C)C)C(=O)OC(C)(C)C)cc1` registered an IC50 of 1020 nM.

As for `O=C(/C=C/c1ccc(Cl)c(Cl)c1)NCCCCCN1[C@@H]2CC[C@H]1CC(c1c[nH]c3ccc(O)cc13)C2` (stereo not given in full), the IC50 was 880 nM and 1000 nM.

Regarding `O=C1Nc2cccc3c2C1(CCCCCN1CCC(c2c[nH]c4ccncc24)CC1)CCC3` (stereo not given), the 50% inhibitory concentration (IC50) turned out to be 990 nM.

For `N#CN1CC[C@@H](OC(=O)N[C@@H]2C[C@H]2c2ccccc2)C1`, the concentration for half-maximal inhibition (IC50) was determined as 1340 nM.

In turn, `Oc1ccc2[nH]c(-c3cccc(F)c3)nc2c1CN1CCCC1` came in with an IC50 of 800 nM.

As to `CC(C)Oc1ccc(C=CC(=O)Nc2noc3ccccc23)cc1`, the concentration for half-maximal inhibition (IC50) was 290 nM.

Compound `CC(C)(C)CC(C)(C)c1ccc(O)c(C(=O)Nc2ccc([N+](=O)[O-])cc2)c1` had an IC50 of 770 nM.

`CN1CCCN(Cc2cccc(-c3ccc(NC(=O)c4cccc(C#N)c4)cc3)c2)CC1`: the half-inhibitory concentration (IC50) is 720 nM.

On to `CCN(CCCN1CCCCC1)c1cc(C)nc(Nc2ccc(C)cc2)n1`, for which the concentration for half-maximal inhibition (IC50) worked out at 410 nM.

As for `COc1ccc(NC(=O)[C@H](CC(C)C)Nc2cc(C)nc(NCCc3ccc(F)cc3)n2)cc1`, the IC50 is 920 nM.

Take `Cc1cccc(CNc2nc(C)cc(NCCC(=O)NCc3cccc(F)c3)n2)c1`: the half-maximal inhibitory concentration (IC50) was determined as 850 nM.

The compound `CC(=O)N[C@H](C(=O)Nc1ccc(-c2ccc(-c3nc4ccc(C(F)(F)F)cc4[nH]3)s2)cc1)C(C)C` showed an IC50 of 1030 nM.

`CCNc1cc(C(=O)N[C@@H](Cc2ccccc2)[C@H](O)CNC23CCC(CC2)CC3)cc(N2CCCCS2(=O)=O)c1` came in with a concentration for half-maximal inhibition (IC50) of 60 nM.

The compound `COc1cc(C(C)C)ccc1N1CCN(CCCCNC(=O)c2ccc(NC(=O)c3ccc(Cl)cc3)cc2)CC1` registered a half-maximal inhibitory concentration (IC50) of 580 nM.

Take `O=C(Oc1ccc(Cl)cc1C(=O)Nc1ccc([N+](=O)[O-])cc1Cl)c1ccccc1`: the IC50 was 910 nM.

The compound `COCCNCc1cccc(-c2ccccc2CN(C(=O)c2ccc3c(c2)OCO3)c2ccc(OC)cc2)c1` displayed an IC50 of 1110 nM.

`C=CCc1cc(Cc2cnc(N)nc2N)c2ccc(C)nc2c1O` yielded a half-maximal inhibitory concentration (IC50) of 1040 nM.

As for `O=C(Cc1cnc[nH]1)Nc1cccc(-c2cccc(-c3nc4ccc(C(F)(F)F)cc4[nH]3)c2)c1`, the IC50 is 230 nM.

Turning to `COc1cccc2cc(C(=O)N[C@@H](CC(C)C)C(=O)N[C@H](/C=N/N3CC(=O)NC3=O)CC(C)C)oc12`, the concentration for half-maximal inhibition (IC50) was 920 nM.

In turn, `COc1ccc(-c2nc(NC(=O)Cc3ccc(OC)c(OC)c3)sc2C)cc1` yielded an IC50 of 1160 nM.

For `COc1ccc(C(=O)N2CCC(CN3CCOC(c4ccccc4)(c4ccccc4)C3)CC2)cc1`, the IC50 came out at 170 nM.

For `Cc1c(CNCCCNc2cc(=O)c3ccccc3[nH]2)sc(C(F)F)c1Br`, the half-maximal inhibitory concentration (IC50) stood at 870 nM.

In turn, `c1ccc2[nH]c(-c3ccc(-c4ccc(CN5CCCCC5)cc4)s3)nc2c1` registered an IC50 of 740 nM.

The compound `N#CCCN1CCN(Cc2ccc(-c3ccc(-c4nc5ccc(F)cc5[nH]4)s3)cc2)CC1` returned an IC50 of 660 nM.

The compound `CCCn1cc2c(ccc3nc(N)nc(N)c32)n1` registered an IC50 of 80 nM.

`Cc1ccccc1NC(=S)NC1CCN(CCCCCNC(=O)/C=C/c2ccc(Cl)c(Cl)c2)CC1` displayed a 50% inhibitory concentration (IC50) of 790 nM.

With `COc1ccc(Cn2c(Nc3cccc(C(F)(F)F)c3)nc3cc(C(=O)NC(C)C)cnc32)cc1Cl`, the IC50 is 970 nM.

For the compound `O=C(Nc1ccc(C(=O)Oc2ccc(-c3ccccc3)cc2)cc1)N[C@@H](Cc1ccc(O)cc1)C(=O)NC1CCN(Cc2ccc(O)cc2)C1` (stereo not given in full), the IC50 stood at 800 nM.

The compound `CCc1nonc1NC(=O)c1oc2c(C)c(C)ccc2c1C` had a 50% inhibitory concentration (IC50) of 880 nM.

As for `NC(=O)Nc1ccc2c(Nc3ccc(OCc4ccccc4)cc3)ncnc2c1`, the IC50 worked out at 1260 nM.

In the case of `O=C(C=Cc1ccccc1C(F)(F)F)NC1CCC(CN2CCC(c3c[nH]c4ccccc34)CC2)CC1` (stereo not given), the IC50 is 900 nM and 680 nM.

The compound `N#Cc1cnc(Nc2ccc(Oc3ccccc3)cc2)nc1Nc1cccc(S(N)(=O)=O)c1` yielded a half-inhibitory concentration (IC50) of 550 nM.

`O=C(Nc1cccc(C(F)(F)F)c1)NC1CCN(c2ccnc3ccccc23)C1` (stereo not given) gave a 50% inhibitory concentration (IC50) of 290 nM.

`c1ccc(Oc2ccc(Nc3ccnc(Nc4ccc(OCCN5CCCCC5)cc4)n3)cc2)cc1` had a half-inhibitory concentration (IC50) of 600 nM.

In turn, `Cc1cc(=O)c2cc(Oc3ccc(OC(F)(F)F)cc3)ccc2[nH]1` had a 50% inhibitory concentration (IC50) of 990 nM.

Regarding `CN1CCN(CC(=O)Nc2cccc(-c3ccc(-c4nc5ccc(C(F)(F)F)cc5[nH]4)cc3)c2)CC1`, the IC50 was 520 nM.

`O=C(Cn1cnc2c(nnn2Cc2ccccc2F)c1=O)Nc1ccc2c(c1)OCCO2` returned a half-maximal inhibitory concentration (IC50) of 950 nM.

`Cn1cnc2c(Nc3ccncc3)nc(-c3ccc(OC(F)(F)F)cc3)nc21`: the IC50 was 1100 nM.

`COc1ccc(C(=O)CCC(=O)N(CCC2CCCN2C)Cc2ccc(-c3ccc(CNCCc4ccc(S(C)(=O)=O)cc4)cn3)cc2)cc1F` (stereo not given) returned an IC50 of 870 nM.

Take `CCc1ccc(NC(=O)c2ccc(CN3CCCN(Cc4cccc(O)c4)CC3)cc2)cc1`: the IC50 was found to be 670 nM.

`CCCCCC(=O)NCC(NCCCNc1cc(=O)c2ccccc2[nH]1)c1cc(Br)cc(Br)c1` (stereo not given) returned an IC50 of 650 nM.

`O=C(Nc1ccc(F)cc1)c1ccc(C(=O)NC2CCN(CC3CCCCC3)CC2)cc1` came in with a half-inhibitory concentration (IC50) of 540 nM.

`Cc1ccc(C(NC(=O)c2ccccc2)c2ccc3cccnc3c2O)cc1` (stereo not given): the IC50 is 960 nM.

`CCc1ccc(C2CCN(CCCCNC(=O)c3ccc(NC(=O)c4ccc(Cl)cc4)cc3)CC2)c(OC)c1`: the half-inhibitory concentration (IC50) came to 790 nM.

On to `Cc1c[nH]c2cc(/C=C/C(=O)NC3CCC(CCN4CCc5ccc(C#N)cc5CC4)CC3)ccc12` (stereo not given), for which the IC50 was found to be 800 nM.

For the compound `COc1cc(C(F)(F)F)nc2c(CNCCCNc3cc(=O)c4ccccc4[nH]3)scc12`, the IC50 came to 1180 nM.

`CCc1cn2c3c(cc(C(=O)N[C@@H](Cc4cc(F)cc(F)c4)[C@H](O)CNC4CCCCC4)cc13)N(C)S(=O)(=O)CC2` gave an IC50 of 30 nM.

With `CCCCNC(=O)C(C)NC(=O)c1ccc(O)c(-c2ccc(Cl)c(Cl)c2)c1` (stereo not given), the IC50 was 820 nM.

Consider `Cc1nc(-c2ccc3c(c2)CCN(CCC2CCC(NC(=O)c4cc5cccc(Cl)c5[nH]4)CC2)CC3)no1` (stereo not given), for which the IC50 was found to be 630 nM.

Regarding `COc1cccc(C2CCN(CCN3CCC(NC(=O)c4ccc(-c5ccc(C(F)(F)F)cc5)cc4)CC3)CC2)c1`, the IC50 worked out at 200 nM.

Compound `c1ccc2c(NCCOCCNc3c4ccccc4nc4ccccc34)c3ccccc3nc2c1` yielded an IC50 of 880 nM.

Regarding `COc1ccc(-c2ccc(NC(=O)c3cccc(F)c3)cc2)cc1CN1CCCN(C)CC1`, the concentration for half-maximal inhibition (IC50) amounted to 670 nM.

Compound `CN1CCCN(Cc2ccc(-c3cccc(NC(=O)c4cccc(C#N)c4)c3)cc2)CC1` registered an IC50 of 650 nM.

Compound `COc1ccc(-c2cccc(NC(=O)c3ccc(F)cc3)c2)cc1CN1CCCN(C)CC1` returned a half-inhibitory concentration (IC50) of 830 nM.

`COc1cc2nc(N3CCC(CNC(=O)c4ccc(-c5ccc(C#N)cc5)cc4)CC3)nc(N)c2cc1OC` displayed a 50% inhibitory concentration (IC50) of 800 nM.

Turning to `COc1ccc(O)c(C(=O)c2cc(C(=O)NCCc3ccccc3)c(=O)n(CCc3ccccc3)c2)c1`, the half-inhibitory concentration (IC50) came out at 1010 nM.

`CC(=O)Nc1ccc(CN2CCCN(c3cc(NC(=O)c4cccc(C)c4)ccn3)CC2)cc1` gave an IC50 of 860 nM.

Turning to `Cc1cccc2[nH]c(-c3cccc(-c4ccc(NC(=O)C(C)CN5CCOCC5)cc4)c3)nc12` (stereo not given), the 50% inhibitory concentration (IC50) was determined as 690 nM.

As to `CC(=O)Nc1nc(C(=O)Nc2cccc(-c3ccc(-c4nc5ccccc5[nH]4)cc3)c2)cs1`, the 50% inhibitory concentration (IC50) turned out to be 420 nM.

`COc1ccc2nccc([C@H](O)CN3CCC(NCc4cc(C)c5c(c4)OCCO5)CC3)c2n1` had an IC50 of 900 nM.

With `O=[N+]([O-])c1ccc(C(O)P(=O)(c2ccccc2)c2ccccc2)cc1` (stereo not given), the IC50 amounted to 340 nM.

As to `CCOC(=O)c1cn(CC)c2cc(N3CCCCC3)c(F)cc2c1=O`, the IC50 came out at 130 nM.

For the compound `COc1ccccc1-c1cccc(Nc2c(Nc3ccc(Cl)cc3)c(=O)c2=O)c1`, the 50% inhibitory concentration (IC50) was found to be 880 nM.

As to `COc1cccc2c(NN=Cc3ccccc3F)ccnc12`, the half-maximal inhibitory concentration (IC50) came to 940 nM.

Compound `Cc1cc(=O)[nH]c(NC#N)n1` gave an IC50 of 170 nM.

In turn, `CCOc1ccccc1[C@H]1[C@H](C(=O)C(C)(C)C)N2c3ccc(Br)cc3C=CC2C12C(=O)c1ccccc1C2=O` (stereo not given in full) showed an IC50 of 850 nM.

With `COc1ccc2nc3cc(Cl)ccc3c(NCCCCCCNc3c4ccc(Cl)cc4nc4ccc(OC)cc34)c2c1`, the half-inhibitory concentration (IC50) stood at 660 nM.

As to `CC(C)(C)c1ccc(-c2csc(NC(=O)CC(c3ccccc3)c3ccccc3)n2)cc1`, the IC50 came to 1150 nM.

`Oc1ccc(Cl)cc1-c1cc(C(F)(F)F)nc(-c2ccccc2)n1` had a half-inhibitory concentration (IC50) of 750 nM.

`COc1cc(NC(=O)N2CCc3ccc(OCCN4CCCCC4)cc32)cc(C(F)(F)F)c1` registered an IC50 of 270 nM.

For `O=C(N1CCN(c2ccnc3cc4c(cc23)N(Cc2ccccc2)CC4)CC1)C(F)(F)F`, the IC50 came out at 260 nM.

For `c1ccc(-c2ccc3c(Nc4ccc5[nH]ncc5c4)ccnc3c2)nc1`, the IC50 is 820 nM.

For `CNC(=O)c1ccccc1Nc1cc(Nc2cc(OC)ccn2)ncc1Cl`, the IC50 came to 930 nM.

Compound `O=C(/C=C/c1ccc(Cl)c(Cl)c1)NCCCCCN1CCCN(C(=S)Nc2ccc(Cl)c(Cl)c2)CC1` had a concentration for half-maximal inhibition (IC50) of 870 nM.

`COc1ccc2ccccc2c1C=NNc1ccnc2cc(Cl)ccc12` yielded an IC50 of 610 nM.

`N#CCc1ccc(Nc2nccc(Nc3ccc(Oc4ccccc4)cc3)n2)cc1` showed a 50% inhibitory concentration (IC50) of 810 nM.

Regarding `OCCN1CCN(Cc2ccc(-c3ccc(-c4nc5ccc(C(F)(F)F)cc5[nH]4)s3)cc2)CC1`, the IC50 came out at 380 nM.
